Where a name gives a salt, the structure may show the parent alone.
Columns and labels:
Format in all cases: cell-based, human
[1] = tested on: ubiquitinated p53 in A549 cells; assay: p53 expression by western blot; conditions: A549 cells with wild type p53, single agent
Procedure: Cells were scraped from the culture, washed twice with PBS, and then suspended in 60-100 μL of Western blot lysis buffer containing 50 mM Tris-HCl (pH 7.5), 250 mM NaCl, 1 mM EDTA, 1 mM EGTA, 1 mM NaF, 1 mM phenylmethylsulfonyl fluoride, 1 mM DTT, 20 μg/mL leupeptin, 20 μg/mL aprotinin, 0.1% Triton X-100 and 1% SDS at 0-4° C. for 15 min. After centrifugation at 1500× g for 10 min at 0° C., the supernatants were collected, and the proteins were separated on 10% SDS-PAGE. After electrophoresis, protein blots were transferred to a nitrocellulose membrane. The membrane was blocked with 5% nonfat milk powder in TBST and incubated overnight with the corresponding primary antibodies at 4° C. After washing three times with TBST, the membrane was incubated at room temperature for 1 h with horseradish peroxidase-conjugated secondary antibody diluted with TBST (1:1000). The detected protein signals were visualized by an enchanced cheiluminescence reaction system (Amersham, Arlington Heights, Ill.).
A549 cells with wild type p53 were exposed to either bortezomib or erlotinib alone, or in combination concomitantly or sequentially 24-hr apart, and p53 expression was assessed by western blot.

H358 = assay: MTT cytotoxicity assay, H358; conditions: H358, 72 h
[2] = tested on: EGF-induced EGFR-phosphorylation; assay: EGF-induced EGFR phosphorylation in sensitive and resistant cells; conditions: both sensitive and resistant cells
Procedure: Cells were scraped from the culture, washed twice with PBS, and then suspended in 60-100 μL of Western blot lysis buffer containing 50 mM Tris-HCl (pH 7.5), 250 mM NaCl, 1 mM EDTA, 1 mM EGTA, 1 mM NaF, 1 mM phenylmethylsulfonyl fluoride, 1 mM DTT, 20 μg/mL leupeptin, 20 μg/mL aprotinin, 0.1% Triton X-100 and 1% SDS at 0-4° C. for 15 min. […] After electrophoresis, protein blots were transferred to a nitrocellulose membrane. The membrane was blocked with 5% nonfat milk powder in TBST and incubated overnight with the corresponding primary antibodies at 4° C. After washing three times with TBST, the membrane was incubated at room temperature for 1 h with horseradish peroxidase-conjugated secondary antibody diluted with TBST (1:1000). The detected protein signals were visualized by an enchanced cheiluminescence reaction system (Amersham, Arlington Heights, Ill.).

A549 = assay: MTT cytotoxicity assay, A549; conditions: A549, 72 h
H322 = assay: MTT cytotoxicity assay, H322; conditions: H322, 72 h
H1299 = assay: MTT cytotoxicity assay, H1299; conditions: H1299, 72 h

Compound: CC(C)C[C@H](NC(=O)[C@H](Cc1ccccc1)NC(=O)c1cnccn1)B(O)O [bortezomib]
- p53 expression (western blot) [1]: accumulation of ubiquitinated p53

Compound: C#Cc1cccc(Nc2ncnc3cc(OCCOC)c(OCCOC)cc23)c1 [erlotinib HCl, [6,7-bis(2-methoxyethoxy)-4-quinazolin-4-yl]-(3-ethynylphenyl) amine]
- Sensitivity (cytotoxicity) (H358): sensitive
- EGF-induced EGFR-phosphorylation [2]: inhibits
- Sensitivity (cytotoxicity) (A549): resistant
- Sensitivity (cytotoxicity) (H322): sensitive
- Sensitivity (cytotoxicity) (H1299): resistant

From US20060084691A1, “Combined treatment with bortezomib and an epidermal growth factor receptor kinase inhibitor” (priority 2004, published 2006)
